Experimental findings from patent US20110160059A1, “Herbicidal compositions comprising flufenacet” (Bayer CropScience AG, priority 2009, published 2011) are described below.

What all share (assay type): in vivo
In data set [1] the test system is HORVS=Hordeum vulgare, summer barley=crop plant. The data set is described as follows: Greenhouse trial, selective post-emergence action on crop (test method 2). As to the method: (§1) In the standard design of the test, seeds of various broad-leaved weed and weed grass biotypes (origins) were sown in a 8-13 cm diameter pot filled with natural soil of a standard field soil (loamy silt; non-sterile) and covered with a covering soil layer of about 1 cm. The pots were then cultivated in a greenhouse (12-16 h of light, temperature day 20-22° C., night 15-18° C.) until the time of application. The pots were treated on a laboratory track sprayer with spray liquors comprising the compositions according to the invention, mixtures of the prior art or components used individually. Application of the active compounds or active compound combinations formulated as WG, WP, EC or otherwise was carried out at the appropriate growth stages of the plants. The application rate for the spray application was 100-600 l of water/ha. After the treatment, the plants were returned to the greenhouses.
(§2) About 3 weeks after the application, the soil action or/and foliar action was assessed visually according to a scale of 0-100% in comparison to an untreated comparative group: 0%=no noticeable effect compared to the untreated comparative group; 100%=full effect compared to the untreated comparative group.
(notes: the term “seeds” also includes vegetative propagation forms such as, for example, rhizome pieces; abbreviations used: h light=hours of illumination, g of AS/ha=gram of active substance per hectare, l/ha=liter per hectare, S=sensitive, R=resistant) • 1. […]
(§3) Insofar as herbicidal effects of the compositions according to the invention compared to mixtures of the prior art or compared to components applied individually against economically important mono- and dicotyledonous harmful plants were the center of attention, the synergistic herbicidal activities were calculated using Colby's formula (cf. S. R. Colby; Weeds 15 (1967), 20-22): […]

Data set [2] relates to VIOAR=Viola arvensis=weed. The data set is described as follows: Greenhouse trial, post-emergence action against weeds (test method 1). The settings on record: PO application, about 3 weeks after application. The protocol:
as §1, §2
(§4) (notes: the term “seeds” also includes vegetative propagation forms such as, for example, rhizome pieces; abbreviations used: h light=hours of illumination, g of AS/ha=gram of active substance per hectare, l/ha=liter per hectare, S=sensitive, R=resistant) • 1. Post-emergence action against weeds: seeds of various broad-leaved weed and weed grass biotypes (origins) were sown in a 8-13 cm diameter pot filled with natural soil of a standard field soil (loamy silt; non-sterile) and covered with a covering soil layer of about 1 cm. The pots were then cultivated in a greenhouse (12-16 h of light, temperature day 20-22° C., night 15-18° C.) until the time of application. The pots were treated at various BBCH stages between 11-25 of the seeds/plants, i.e. generally between two to three weeks after the start of the cultivation, on a laboratory track sprayer with spray liquors comprising the compositions according to the invention, mixtures or components used individually, as WG, WP, EC or other formulations. The application rate for the spray application was 100-600 l of water/ha. After the treatment, the plants were returned to the greenhouses and, when required, treated with fertilizer and watered. • 2. Selective post-emergence action: seeds of various crop species (origins) were sown in a 8-13 cm diameter pot filled with natural soil of a standard field soil (loamy silt; non-sterile) and covered with a covering soil layer of about 1 cm. The pots were then cultivated in a greenhouse (12-16 h of light, temperature day 20-22° C., night 15-18° C.) until the time of application. The pots were treated at various BBCH stages between 11-32 of the seeds/plants, i.e. generally between two to four weeks after the start of the cultivation, on a laboratory track sprayer with spray liquors comprising the compositions according to the invention, mixtures or components used individually, as WG, WP, EC or other formulations. The application rate for the spray application was 100-600 l of water/ha. After the treatment, the plants were returned to the greenhouses and, when required, treated with fertilizer and watered. The pots were cultivated in a greenhouse (12-16 h light, temperature day 20-22° C., night 15-18° C.).
as §3

Data set [3] concerns APESV=Apera spica-venti=weed. The description is as above. The settings on record: PO application, about 3 weeks after application. As to the method: as §1, §2, §4, §3

Molecules are shown by their SMILES.

Consider `CC(Oc1ccc(Oc2ccc(Cl)cc2Cl)cc1)C(=O)O` (racemic) [(B) diclofop, (±)-2-[4-(2,4-dichlorophenoxy)phenoxy]propanoic acid], for which, in data set [1] (PO application, 378 g of AS/ha, about 3 weeks after application, greenhouse), the “activity (crop damage) on HORVS, visual scale 0-100% vs untreated” value is given as 20%. In data set [2] (378 g of AS/ha), the “activity on VIOAR, visual scale 0-100% vs untreated” value amounted to 0%. Moreover, the “activity on APESV, visual scale 0-100% vs untreated” value in data set [3] (378 g of AS/ha) is listed as 0%.

As for `CC(C)N(C(=O)COc1nnc(C(F)(F)F)s1)c1ccc(F)cc1` [(A) flufenacet, N-(4-fluorophenyl)-N-(1-methylethyl)-2-[[5-(trifluoromethyl)-1,3,4-thiadiazol-2-yl]oxy]acetamide], in data set [1] (Hordeum vulgare (summer barley), in vivo, po), the “activity (crop damage) on HORVS, visual scale 0-100% vs untreated” value came out at 40%. The “activity on VIOAR, visual scale 0-100% vs untreated” value in data set [2] (120 g of AS/ha) was found to be 40%. Further, in data set [3] (120 g of AS/ha), the “activity on APESV, visual scale 0-100% vs untreated” value amounted to 60%.

Take `CSc1nnc(C(C)(C)C)c(=O)n1N` [(C) metribuzin, 4-amino-6-(1,1-dimethylethyl)-3-(methylthio)-1,2,4-triazin-5(4H)-one]: in data set [1] (PO application, 140 g of AS/ha, about 3 weeks after application, greenhouse), the “activity (crop damage) on HORVS, visual scale 0-100% vs untreated” value is on record as 70%. In data set [2] (140 g of AS/ha), the “activity on VIOAR, visual scale 0-100% vs untreated” value amounted to 90%. In data set [3] (140 g of AS/ha), the “activity on APESV, visual scale 0-100% vs untreated” value was 79%.
